Activity calls are given as the source filed them.
Key:
cells [1] = format: functional, cell-based; settings: HEK-CNG
Galanin receptor type 3 = Galanin receptor type 3 (Homo sapiens, UniProt O60755); assay: Fluorescence-based cell-based primary high throughput dose response assay to identify antagonists of the Galanin Receptor 3 (GalR3).; format: functional
Streptokinase A = target: T1, Streptokinase A (Streptococcus pyogenes serotype M1, UniProt P10520); assay: viability-normalized secreted streptokinase activity reduction – plasminogen activation absorbance, OD405, dose response (AID 1914); format: functional, Streptococcus pyogenes M1 GAS;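 note: secreted streptokinase activity via plasminogen activation per viability signal from cell pellet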
T1 sequence (P10520 whole entry): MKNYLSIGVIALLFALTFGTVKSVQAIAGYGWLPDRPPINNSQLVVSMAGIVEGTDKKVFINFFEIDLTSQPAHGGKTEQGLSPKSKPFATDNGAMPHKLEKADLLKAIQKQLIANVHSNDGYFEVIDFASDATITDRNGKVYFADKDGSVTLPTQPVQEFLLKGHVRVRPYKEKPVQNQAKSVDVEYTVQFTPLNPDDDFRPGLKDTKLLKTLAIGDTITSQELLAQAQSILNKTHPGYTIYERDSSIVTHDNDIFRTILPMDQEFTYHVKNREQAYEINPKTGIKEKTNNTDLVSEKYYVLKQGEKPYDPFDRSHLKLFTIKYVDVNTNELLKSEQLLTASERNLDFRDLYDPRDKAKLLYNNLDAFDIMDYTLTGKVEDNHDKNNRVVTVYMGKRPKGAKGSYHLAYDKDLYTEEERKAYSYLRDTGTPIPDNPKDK

[2] = viability loss in THP-1 monocytes – THP-1 cells, cytotoxicity control for Vif-APOBEC3G degradation inhibitor project, dose response (AID 1117359); format: functional; settings: THP-1
[3] = target: Disintegrin and metalloproteinase domain-containing protein 17 (Homo sapiens, UniProt P78536); assay: exosite inhibitors of ADAM17, dose response, biochemical (AID 743260)
Sequence of Disintegrin and metalloproteinase domain-containing protein 17 (P78536 whole entry, the tested form may be a part): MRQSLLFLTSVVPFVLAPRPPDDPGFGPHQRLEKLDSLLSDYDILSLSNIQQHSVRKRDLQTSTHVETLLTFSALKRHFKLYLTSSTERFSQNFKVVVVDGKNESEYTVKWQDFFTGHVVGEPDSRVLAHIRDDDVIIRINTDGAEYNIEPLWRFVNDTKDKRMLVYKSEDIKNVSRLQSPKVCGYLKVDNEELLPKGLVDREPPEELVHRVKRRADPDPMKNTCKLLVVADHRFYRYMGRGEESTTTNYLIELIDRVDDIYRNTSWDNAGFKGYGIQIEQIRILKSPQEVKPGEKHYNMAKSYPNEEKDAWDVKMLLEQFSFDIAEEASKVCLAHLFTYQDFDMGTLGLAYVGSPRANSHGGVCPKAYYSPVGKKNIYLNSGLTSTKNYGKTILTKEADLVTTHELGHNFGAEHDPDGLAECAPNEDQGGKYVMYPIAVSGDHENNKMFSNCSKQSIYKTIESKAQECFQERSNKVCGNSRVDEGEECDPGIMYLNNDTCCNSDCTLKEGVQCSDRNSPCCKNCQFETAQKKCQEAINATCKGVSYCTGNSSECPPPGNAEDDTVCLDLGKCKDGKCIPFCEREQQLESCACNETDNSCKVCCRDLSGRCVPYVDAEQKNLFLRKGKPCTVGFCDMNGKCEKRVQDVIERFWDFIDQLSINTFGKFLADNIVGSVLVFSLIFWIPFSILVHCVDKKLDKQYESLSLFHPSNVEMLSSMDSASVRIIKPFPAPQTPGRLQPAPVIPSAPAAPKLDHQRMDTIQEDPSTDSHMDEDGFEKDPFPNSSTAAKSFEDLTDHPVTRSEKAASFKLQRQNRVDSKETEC

Streptococcus = assay: GAS UMAA2166 growth inhibition – luminescence, BacTiterGlo, counter-screen for streptokinase expression inhibitor project, dose response (AID 1915); format: functional, organism-based;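 note: potency for reduction of bacterial viability or growth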
[4] = inhibition of ADAM10 peptide cleavage – biochemical, FRET peptide substrate, recombinant human ADAM10, selectivity assay for ADAM17 exosite inhibitor project, dose response (AID 743259);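 note: ADAM10 enzyme cleaving a FRET peptide substrate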
[5] = system: Streptococcus sp. 'group A'; assay: Streptococcus pyogenes SK(-)GAS viability under kanamycin – luminescence, BacTiterGlo, confirmation, counter-screen for streptokinase expression inhibitor project, dose response (AID 1900); format: functional, organism-based
[6] = HGIII-sPLA2 enzyme inhibition potency – biochemical, QFRET, IC50, dose response (AID 743457);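 note: green fluorescence rise as the enzyme cleaves BODIPY PC-A2 in liposomes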
[7] = target: Dual specificity tyrosine-phosphorylation-regulated kinase 1A (Rattus norvegicus, UniProt Q63470); format: biochemical, Homo sapiens
[8] = target: T2, Sentrin-specific protease 1 (Homo sapiens, UniProt Q9P0U3); assay: Dose response confirmation of small molecule inhibitors of the catalytic domain of the SUMO protease, SENP1 in a FRET assay.; format: functional; settings: read-out: IC50_Mean
T2 sequence (Q9P0U3 whole entry): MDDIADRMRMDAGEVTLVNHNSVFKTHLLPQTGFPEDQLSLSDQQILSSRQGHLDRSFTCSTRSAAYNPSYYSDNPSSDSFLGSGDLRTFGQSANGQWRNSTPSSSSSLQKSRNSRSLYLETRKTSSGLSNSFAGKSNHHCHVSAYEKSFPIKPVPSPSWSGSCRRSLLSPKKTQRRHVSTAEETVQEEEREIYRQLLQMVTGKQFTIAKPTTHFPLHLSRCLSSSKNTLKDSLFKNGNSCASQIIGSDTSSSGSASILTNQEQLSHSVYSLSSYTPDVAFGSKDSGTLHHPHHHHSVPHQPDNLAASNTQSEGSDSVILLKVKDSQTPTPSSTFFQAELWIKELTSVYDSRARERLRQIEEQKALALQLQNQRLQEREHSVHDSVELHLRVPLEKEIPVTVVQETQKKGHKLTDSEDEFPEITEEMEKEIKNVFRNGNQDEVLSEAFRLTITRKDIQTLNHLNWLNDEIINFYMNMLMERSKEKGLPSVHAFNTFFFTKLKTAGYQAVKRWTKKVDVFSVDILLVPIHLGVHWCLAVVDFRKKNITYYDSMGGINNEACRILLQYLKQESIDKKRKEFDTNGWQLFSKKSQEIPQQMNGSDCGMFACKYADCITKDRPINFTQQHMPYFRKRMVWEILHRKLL

[9] = target: T2, Sentrin-specific protease 1; assay: SENP1 catalytic domain blockers, concentration series – biochemical, kinetic FRET, dose response (AID 651697); format: functional; settings: read-out: IC50_Mean
[10] = target: COUP transcription factor 2 (Homo sapiens, UniProt P24468); assay: Luminescence-based cell-based high throughput dose response assay to identify inhibitors of COUP-TFII (NR2F2).; format: functional;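 note: HEK293 cells transiently cotransfected with COUP-TFII expression vector and reporter; luciferase reporter luminescence driven by COUP-TFII from the pX2-168 reporter plasmid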
Sequence of COUP transcription factor 2 (P24468 whole entry): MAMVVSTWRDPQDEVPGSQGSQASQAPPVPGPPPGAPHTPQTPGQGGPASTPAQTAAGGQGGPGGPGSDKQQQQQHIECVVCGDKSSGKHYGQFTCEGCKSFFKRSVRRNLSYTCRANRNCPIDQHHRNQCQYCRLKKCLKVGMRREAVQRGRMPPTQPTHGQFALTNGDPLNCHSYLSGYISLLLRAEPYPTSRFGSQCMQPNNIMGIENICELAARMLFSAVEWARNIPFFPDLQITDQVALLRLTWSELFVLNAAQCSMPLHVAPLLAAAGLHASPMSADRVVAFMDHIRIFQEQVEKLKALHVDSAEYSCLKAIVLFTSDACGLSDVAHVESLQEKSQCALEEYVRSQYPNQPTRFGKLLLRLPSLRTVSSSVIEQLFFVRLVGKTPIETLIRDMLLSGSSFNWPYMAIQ

A-375 = assay: proliferation inhibition in MITF-low A375 cells – cell-based, cherry-pick samples, set 2, counter-screen for MITF modulator project, dose response (AID 540335); format: functional; settings: Homo sapiens
[11] = target: G-protein coupled receptor 35 (Homo sapiens, UniProt Q9HC97); assay: inhibition of zaprinast-stimulated GPR35 beta-arrestin translocation – imaging, U2OS, beta-arrestin-GFP, zaprinast agonist, primary screen (AID 2058); format: functional;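 note: antagonist potency meaning inhibition of agonist-induced arrestin redistribution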
Sequence of G-protein coupled receptor 35 (Q9HC97 whole entry): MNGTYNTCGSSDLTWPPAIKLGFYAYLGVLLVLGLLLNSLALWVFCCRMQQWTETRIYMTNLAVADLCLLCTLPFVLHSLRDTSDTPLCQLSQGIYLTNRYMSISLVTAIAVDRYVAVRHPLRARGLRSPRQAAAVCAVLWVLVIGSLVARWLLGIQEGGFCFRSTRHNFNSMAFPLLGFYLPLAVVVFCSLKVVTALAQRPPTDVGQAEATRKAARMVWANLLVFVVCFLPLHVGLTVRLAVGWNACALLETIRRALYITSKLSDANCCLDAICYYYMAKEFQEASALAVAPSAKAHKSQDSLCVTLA

[12] = target: T3, Microphthalmia-associated transcription factor (Homo sapiens, UniProt O75030); assay: reducers of TRPM1 reporter luminescence, concentration series – cell-based, SK-MEL-5, cherry-picked, set 3, MITF inhibitor project, dose response (AID 493073); format: functional;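 note: SK-MEL-5 melanoma cells with luciferase driven by the MITF target TRPM1 promoter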
T3 sequence (O75030 whole entry): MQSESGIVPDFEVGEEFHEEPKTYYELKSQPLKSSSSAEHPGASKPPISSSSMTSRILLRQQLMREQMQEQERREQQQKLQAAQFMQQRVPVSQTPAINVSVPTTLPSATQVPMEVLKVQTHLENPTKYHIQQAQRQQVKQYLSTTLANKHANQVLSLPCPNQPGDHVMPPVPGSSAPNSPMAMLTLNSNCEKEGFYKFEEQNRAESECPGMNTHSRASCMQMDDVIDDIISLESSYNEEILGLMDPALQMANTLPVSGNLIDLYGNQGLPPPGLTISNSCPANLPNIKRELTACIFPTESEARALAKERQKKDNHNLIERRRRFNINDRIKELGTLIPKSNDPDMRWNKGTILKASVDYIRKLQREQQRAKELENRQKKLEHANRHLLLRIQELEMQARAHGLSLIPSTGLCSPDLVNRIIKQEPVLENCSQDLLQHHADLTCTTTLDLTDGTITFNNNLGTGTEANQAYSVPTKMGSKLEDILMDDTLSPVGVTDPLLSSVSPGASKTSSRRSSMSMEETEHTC

[13] = HEK-293T viability loss after treatment – luminescence, T-cell screen hits, cytotoxicity control for TCR NF-kB inhibitor project, dose response (AID 489026); format: functional, cell-based;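 note: cells exposed to compound about 14 hours before the viability readout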
[14] = reduced cellular PGC1a acetyl-lysine signal – cell-based, cherry-picked samples, dose response (AID 720514); format: functional;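 note: potency may reflect raised or lowered acetylation signal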
[15] = P. falciparum Dd2 growth inhibitors, dose response, SYBR Green, cherry-picked samples (AID 1159567); format: functional, cell-based
[16] = toxicity to human HepG2 hepatoma cells – cell-based, plate reader, dry powder samples, cytotoxicity control, dose response (AID 1159569); format: functional;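 note: inhibitor potency with signal falling toward the positive control level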
[17] = Dd2 malaria parasite growth inhibition potency – SYBR Green, dry powder samples, dose response (AID 1159566); format: functional, cell-based;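 note: potency for growth inhibition with lower SYBR green DNA signal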
[18] = growth inhibition of yeast DHODH-expressing 3D7 parasites – SYBR Green, dry powder samples, dose response (AID 1159570); format: functional, cell-based;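 note: parasite growth measured after 72 hours of compound exposure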
[19] = growth inhibition of PfATP4-mutant resistant parasites – NITD609-resistant line, SYBR Green, dry powder, dose response (AID 1159571); format: functional, cell-based;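 note: parasites synchronized at ring stage by sorbitol before testing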
[20] = target: NAD-dependent protein deacylase sirtuin-5, mitochondrial (Homo sapiens, UniProt Q9NXA8); assay: sirtuin-5 deacylation blockers, concentration series – biochemical, fluorescence imaging, cherry-pick, set 5, dose response (AID 720591);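 note: desuccinylation of succinyl peptide AMC substrate read as fluorescence after trypsin release; potency of inhibitors that lower fluorescence and may act on trypsin instead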
Sequence of NAD-dependent protein deacylase sirtuin-5, mitochondrial (Q9NXA8 whole entry): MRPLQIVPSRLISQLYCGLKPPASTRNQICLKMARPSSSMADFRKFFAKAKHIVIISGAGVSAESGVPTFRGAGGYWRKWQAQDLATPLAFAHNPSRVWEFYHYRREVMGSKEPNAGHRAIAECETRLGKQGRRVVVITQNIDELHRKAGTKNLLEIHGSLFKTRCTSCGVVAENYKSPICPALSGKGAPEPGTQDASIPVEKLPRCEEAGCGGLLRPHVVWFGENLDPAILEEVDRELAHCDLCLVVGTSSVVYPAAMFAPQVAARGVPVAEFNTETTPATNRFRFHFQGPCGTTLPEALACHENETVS

[21] = target: T4, Trace amine-associated receptor 1 (Homo sapiens, UniProt Q96RJ0); assay: Fluorescence-based cell-based high throughput dose response assay to identify agonists of the human trace amine associated receptor 1 (TAAR1).; format: functional
T4 sequence (Q96RJ0 whole entry): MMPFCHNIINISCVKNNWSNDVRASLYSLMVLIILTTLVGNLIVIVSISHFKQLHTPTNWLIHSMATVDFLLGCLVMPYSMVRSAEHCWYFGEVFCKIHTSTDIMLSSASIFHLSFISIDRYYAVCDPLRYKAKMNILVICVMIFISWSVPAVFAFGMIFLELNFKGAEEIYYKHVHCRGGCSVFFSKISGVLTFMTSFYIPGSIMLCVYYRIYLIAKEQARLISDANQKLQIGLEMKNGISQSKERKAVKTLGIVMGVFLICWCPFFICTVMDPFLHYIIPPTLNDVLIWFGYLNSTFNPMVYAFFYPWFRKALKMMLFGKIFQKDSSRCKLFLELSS

cells [22] = format: functional, cell-based
cells [23] = format: functional, cell-based; remark: listed apart in the source
[24] = target: T4, Trace amine-associated receptor 1; assay: Counterscreen for agonists of the human trace amine associated receptor 1 (hTAAR1): Fluorescence-based cell-based high throughput dose response assay to identify hTAAR1 agonist that also desensitize TAAR1 receptor response.; format: functional

Sequence of Galanin receptor type 3 (O60755 whole entry): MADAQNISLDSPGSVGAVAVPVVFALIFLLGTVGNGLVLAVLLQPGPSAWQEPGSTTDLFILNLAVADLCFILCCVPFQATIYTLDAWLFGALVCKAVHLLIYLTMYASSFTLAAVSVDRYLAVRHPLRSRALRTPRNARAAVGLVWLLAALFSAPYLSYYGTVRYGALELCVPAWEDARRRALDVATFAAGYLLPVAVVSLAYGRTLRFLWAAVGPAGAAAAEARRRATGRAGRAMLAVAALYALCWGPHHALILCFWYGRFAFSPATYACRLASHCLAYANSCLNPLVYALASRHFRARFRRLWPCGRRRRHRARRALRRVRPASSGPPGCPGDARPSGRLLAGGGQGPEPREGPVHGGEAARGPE

COc1cccc2[nH]c3c(N4CCC(C)CC4)ncnc3c12
EC50 (cells [1]): > 29.9 µM (inactive) | IC50 (Galanin receptor type 3): 0.379 µM (active)

COc1ccc(C2CC(O)(c3ccccc3)Oc3c(C)ccc(C)c32)cc1 (stereo not drawn)
EC50 (Streptokinase A): > 150 µM (not active) | CC50 [2]: 28.5 µM (active) | IC50 [3]: > 69.5 µM (inactive) | EC50 (Streptococcus): > 150 µM (not active) | IC50 [4]: 12.7 µM (inactive) | EC50 [5]: > 150 µM (not active)

COc1ccccc1N=C(S)NNC(=O)c1nn(C)cc1Cl
IC50 [6]: > 122 µM (inactive)

O=C1NC(=S)SC1=Cc1cc(Br)ccc1O
AC50 [7]: 8.94 µM (active) | IC50 [8]: 2.57 µM (active) | IC50 [9]: 14.7 µM (active)

CC1=CC(=Cc2sc3ccccc3[n+]2C)C=C(C)N1CC1CCCO1 (stereo not drawn)
IC50 [10]: 4.97 µM (active) | AC50 (A-375): 24.4 µM (active) | IC50 [11]: 1.44 µM (active) | AC50 [12]: 1.82 µM (active) | IC50 [13]: > 80 µM (inactive)

CO[C@@H]1CN(C)C(=O)c2cc(NC(C)=O)ccc2OC[C@@H](C)N(Cc2ccccc2C(=O)O)C[C@@H]1C
AC50 [14]: 23.6 µM (active)

O=C(c1ccc(F)cc1)N1CC(=O)N2[C@H](CO)[C@H](c3ccc(-c4cccnc4)cc3)[C@H]2C1
AC50 [15]: 0.821 µM (active) | AC50 [16]: > 100 µM (inactive) | AC50 [17]: 0.964 µM (active) | AC50 [18]: 1.2 µM (active) | AC50 [19]: 1.27 µM (active)

C=CCSc1nnc(NC(=O)c2cn(CC)c3nc(C)ccc3c2=O)s1
AC50 [20]: > 30 µM (inactive)

O=c1cc(Nc2ccc3c(c2)OCO3)[nH]c(=O)n1-c1ccc(Br)cc1
EC50 [21]: 5.11 µM (active) | IC50 (cells [22]): > 29.9 µM (inactive) | EC50 (cells [23]): > 29.9 µM (inactive) | IC50 [24]: 21.9 µM (inactive)
